Measured values from ChEMBL document CHEMBL1201862, “PubChem BioAssay data set” (2004).
Active and inactive are the calls of the source.

Legend:
[1] = test system: Streptococcus; test: GAS UMAA2166 growth inhibition – luminescence, BacTiterGlo, counter-screen for streptokinase expression inhibitor project, dose response (AID 1915); assay type: functional, organism-based;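 further: potency for reduction of bacterial viability or growth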
[2] = NIH-3T3 fibroblast cytotoxicity, dose response, cytotoxicity control, cell-based, fluorescence, Alamar Blue, secondary assay (AID 2327); assay type: functional;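 further: NIH-3T3 mouse fibroblasts cultured with fluconazole at 8 µg/mL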
[3] = test system: Streptococcus sp. 'group A'; test: Streptococcus pyogenes SK(-)GAS viability under kanamycin – luminescence, BacTiterGlo, confirmation, counter-screen for streptokinase expression inhibitor project, dose response (AID 1900); assay type: functional, organism-based
[4] = molecular target: CAAX prenyl protease 1 (Saccharomyces cerevisiae S288c, UniProt P47154); test: yeast CAAX protease Ste24 inhibition – biochemical, S. cerevisiae, plate reader, cherry-pick, dose response (AID 488815)
Chain of CAAX prenyl protease 1 (P47154 whole entry): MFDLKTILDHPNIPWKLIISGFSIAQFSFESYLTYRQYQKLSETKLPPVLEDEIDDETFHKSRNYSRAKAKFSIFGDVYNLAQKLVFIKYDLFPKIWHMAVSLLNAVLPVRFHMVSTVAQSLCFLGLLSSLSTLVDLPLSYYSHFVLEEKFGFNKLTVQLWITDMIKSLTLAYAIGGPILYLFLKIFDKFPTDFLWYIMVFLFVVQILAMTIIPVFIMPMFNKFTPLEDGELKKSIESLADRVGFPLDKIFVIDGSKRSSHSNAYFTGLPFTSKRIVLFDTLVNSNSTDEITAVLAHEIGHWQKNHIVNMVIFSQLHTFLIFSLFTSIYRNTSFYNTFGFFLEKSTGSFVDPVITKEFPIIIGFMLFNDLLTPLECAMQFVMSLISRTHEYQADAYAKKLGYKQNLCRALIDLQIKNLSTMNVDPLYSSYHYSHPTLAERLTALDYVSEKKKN

[5] = molecular target: CAAX prenyl protease 2 (Saccharomyces cerevisiae S288c, UniProt Q03530); assay type: biochemical
Chain of CAAX prenyl protease 2 (Saccharomyces cerevisiae S288c, UniProt Q03530) (Q03530 whole entry): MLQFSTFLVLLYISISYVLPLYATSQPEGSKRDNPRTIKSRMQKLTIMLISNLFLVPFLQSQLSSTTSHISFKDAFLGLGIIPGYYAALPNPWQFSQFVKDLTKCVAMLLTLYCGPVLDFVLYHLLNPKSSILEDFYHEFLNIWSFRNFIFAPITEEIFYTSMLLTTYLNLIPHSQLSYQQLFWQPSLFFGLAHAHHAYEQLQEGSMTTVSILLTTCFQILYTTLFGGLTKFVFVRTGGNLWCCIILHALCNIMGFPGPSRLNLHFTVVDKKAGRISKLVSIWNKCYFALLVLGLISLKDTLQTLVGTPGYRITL

[6] = molecular target: CAAX prenyl protease 2 (Homo sapiens, UniProt Q9Y256); test: inhibition of Ras-converting CAAX protease Rce1 – biochemical, yeast membranes, quenched-peptide fluorescence, cherry-pick, dose response (AID 588849)
Chain of CAAX prenyl protease 2 (Homo sapiens, UniProt Q9Y256) (Q9Y256 whole entry): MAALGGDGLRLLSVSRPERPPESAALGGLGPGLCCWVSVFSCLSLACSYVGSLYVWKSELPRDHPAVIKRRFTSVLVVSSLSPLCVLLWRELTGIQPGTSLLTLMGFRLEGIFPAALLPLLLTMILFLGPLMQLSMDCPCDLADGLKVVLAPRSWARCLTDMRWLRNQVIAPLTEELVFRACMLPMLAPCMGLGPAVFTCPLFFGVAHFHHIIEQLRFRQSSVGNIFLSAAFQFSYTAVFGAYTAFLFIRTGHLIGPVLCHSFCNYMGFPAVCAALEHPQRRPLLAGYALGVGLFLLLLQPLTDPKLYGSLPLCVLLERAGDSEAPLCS

[7] = fluconazole-exposed Candida albicans growth modulators – fluorescence, retest, confirmation (AID 2467); assay type: functional, cell-based
[8] = molecular target: T1, Streptokinase A (Streptococcus pyogenes serotype M1, UniProt P10520); test: viability-normalized secreted streptokinase activity reduction – plasminogen activation absorbance, OD405, dose response (AID 1914); assay type: functional, Streptococcus pyogenes M1 GAS;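 further: secreted streptokinase activity via plasminogen activation per viability signal from cell pellet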
T1 sequence (P10520 whole entry): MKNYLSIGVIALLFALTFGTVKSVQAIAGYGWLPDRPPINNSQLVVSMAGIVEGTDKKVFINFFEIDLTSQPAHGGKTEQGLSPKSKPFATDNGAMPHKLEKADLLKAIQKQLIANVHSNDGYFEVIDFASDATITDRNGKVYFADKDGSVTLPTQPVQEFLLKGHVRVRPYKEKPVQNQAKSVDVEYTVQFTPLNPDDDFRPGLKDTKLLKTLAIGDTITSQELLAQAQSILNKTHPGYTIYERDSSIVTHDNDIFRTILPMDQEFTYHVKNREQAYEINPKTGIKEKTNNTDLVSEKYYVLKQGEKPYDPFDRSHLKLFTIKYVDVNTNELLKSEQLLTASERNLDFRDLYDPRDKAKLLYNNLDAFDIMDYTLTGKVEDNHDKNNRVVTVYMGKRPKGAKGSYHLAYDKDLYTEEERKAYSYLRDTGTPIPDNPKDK

[9] = molecular target: T2, Short transient receptor potential channel 4 (Mus musculus, UniProt Q9QUQ5); test: mouse TRPC4 block via Gq-coupled stimulation – cell-based, acetylcholine stimulus, HEK293 TRPC4, Fluo-4, SAR follow-up (AID 492996); assay type: functional
T2 sequence (Q9QUQ5 whole entry): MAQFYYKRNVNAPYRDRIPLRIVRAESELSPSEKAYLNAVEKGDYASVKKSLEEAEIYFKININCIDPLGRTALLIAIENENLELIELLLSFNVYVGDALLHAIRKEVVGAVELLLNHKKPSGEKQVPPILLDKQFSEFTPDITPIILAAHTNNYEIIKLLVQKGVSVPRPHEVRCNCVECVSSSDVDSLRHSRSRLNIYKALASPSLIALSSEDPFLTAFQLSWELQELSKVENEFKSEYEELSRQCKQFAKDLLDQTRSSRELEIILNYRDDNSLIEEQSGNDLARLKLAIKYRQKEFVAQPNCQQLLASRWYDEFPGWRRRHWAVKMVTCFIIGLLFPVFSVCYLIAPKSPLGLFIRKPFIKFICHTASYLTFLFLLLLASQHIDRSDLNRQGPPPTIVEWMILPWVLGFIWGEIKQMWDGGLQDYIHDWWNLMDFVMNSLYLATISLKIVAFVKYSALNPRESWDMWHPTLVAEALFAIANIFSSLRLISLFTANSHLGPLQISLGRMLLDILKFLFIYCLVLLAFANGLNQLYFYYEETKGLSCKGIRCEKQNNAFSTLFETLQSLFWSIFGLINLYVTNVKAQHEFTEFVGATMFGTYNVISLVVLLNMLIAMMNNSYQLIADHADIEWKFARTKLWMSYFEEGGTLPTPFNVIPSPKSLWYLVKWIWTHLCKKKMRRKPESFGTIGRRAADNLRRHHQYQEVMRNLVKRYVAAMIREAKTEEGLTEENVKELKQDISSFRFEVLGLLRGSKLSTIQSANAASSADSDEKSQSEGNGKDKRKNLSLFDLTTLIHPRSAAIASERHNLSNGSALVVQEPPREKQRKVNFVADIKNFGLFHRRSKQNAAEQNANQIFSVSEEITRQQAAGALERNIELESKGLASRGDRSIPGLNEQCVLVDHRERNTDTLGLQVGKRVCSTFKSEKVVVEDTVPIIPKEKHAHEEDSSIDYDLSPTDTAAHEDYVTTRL

[10] = molecular target: T2, Short transient receptor potential channel 4; test: SAR Analysis for the identification of selective inhibits of the transient receptor potential cation channel C4 (TRPC4): Automated Electrophysiology. [Related pubchem assays (depositor defined):AID2256]; assay type: functional
[11] = molecular target: Short transient receptor potential channel 6 (Mus musculus, UniProt Q61143); test: mouse TRPC6 channel blockers, concentration series – HEK293 cells, membrane potential dye, IC50, selectivity assay for selective TRPC4 inhibitor project, dose response (AID 492987); assay type: functional, cell-based
Chain of Short transient receptor potential channel 6 (Q61143 whole entry): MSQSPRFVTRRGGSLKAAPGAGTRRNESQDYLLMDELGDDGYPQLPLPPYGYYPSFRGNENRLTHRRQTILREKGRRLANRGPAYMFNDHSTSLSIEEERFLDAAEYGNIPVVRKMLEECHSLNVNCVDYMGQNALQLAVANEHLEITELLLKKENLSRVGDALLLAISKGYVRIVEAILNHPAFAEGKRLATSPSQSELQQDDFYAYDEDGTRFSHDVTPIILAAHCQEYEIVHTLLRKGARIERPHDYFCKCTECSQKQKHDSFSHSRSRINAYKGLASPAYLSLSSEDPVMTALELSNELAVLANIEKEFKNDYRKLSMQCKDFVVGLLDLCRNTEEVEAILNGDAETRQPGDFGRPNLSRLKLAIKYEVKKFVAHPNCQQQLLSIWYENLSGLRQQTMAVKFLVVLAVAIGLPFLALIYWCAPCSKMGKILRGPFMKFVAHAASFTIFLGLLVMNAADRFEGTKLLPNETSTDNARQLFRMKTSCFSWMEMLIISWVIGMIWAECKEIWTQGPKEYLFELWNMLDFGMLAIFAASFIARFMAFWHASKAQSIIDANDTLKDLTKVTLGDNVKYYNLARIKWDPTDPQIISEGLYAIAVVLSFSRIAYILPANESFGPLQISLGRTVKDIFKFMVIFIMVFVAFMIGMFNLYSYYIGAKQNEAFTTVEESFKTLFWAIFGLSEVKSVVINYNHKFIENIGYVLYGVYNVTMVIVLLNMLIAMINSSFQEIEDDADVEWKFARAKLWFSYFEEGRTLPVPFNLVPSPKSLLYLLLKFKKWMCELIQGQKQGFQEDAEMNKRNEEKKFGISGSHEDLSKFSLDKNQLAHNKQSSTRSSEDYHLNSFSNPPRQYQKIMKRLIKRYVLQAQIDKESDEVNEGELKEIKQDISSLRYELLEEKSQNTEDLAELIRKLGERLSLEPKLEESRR

[12] = molecular target: T2, Short transient receptor potential channel 4; test: potency of mouse TRPC4 calcium flux blockers – cell-based, HEK293 TRPC4/mu-opioid, DAMGO stimulus, Fluo-4, dose response (AID 492994); assay type: functional
[13] = test system: Jurkat; test: SAR Analysis of small molecule inhibitors of […] specific antigen receptor-induced NF-kB activation in a Jurkat cell line using a luminescence assay - Set 3. [Related pubchem assays (depositor defined):AID435022, AID435025, AID465]; assay type: functional, cell-based; settings: Homo sapiens
[14] = test system: HEK293; test: HEK293T cell viability loss, resazurin readout – resazurin fluorescence, cytotoxicity control for NF-kB activator project, SAR follow-up (AID 493251); assay type: functional, cell-based; settings: Homo sapiens
[15] = test system: HEK293; test: SAR Analysis of small molecule inhibitors of B-cell specific antigen receptor-induced NF-kB activation in a HEK-293T cell line using a luminescence assay - Set 2. [Related pubchem assays (depositor defined):AID435022, AID435025, AID489021]; assay type: functional, cell-based; settings: Homo sapiens
[16] = molecular target: Luciferin 4-monooxygenase (Photuris pensylvanica, UniProt Q27757); test: inhibition of Cell Titer Glo luciferase signal – biochemical, luminescence, cherry-picks, counter-screen for HSF-1 reporter inhibitor project, dose response (AID 588847)
Chain of Luciferin 4-monooxygenase (Q27757 whole entry): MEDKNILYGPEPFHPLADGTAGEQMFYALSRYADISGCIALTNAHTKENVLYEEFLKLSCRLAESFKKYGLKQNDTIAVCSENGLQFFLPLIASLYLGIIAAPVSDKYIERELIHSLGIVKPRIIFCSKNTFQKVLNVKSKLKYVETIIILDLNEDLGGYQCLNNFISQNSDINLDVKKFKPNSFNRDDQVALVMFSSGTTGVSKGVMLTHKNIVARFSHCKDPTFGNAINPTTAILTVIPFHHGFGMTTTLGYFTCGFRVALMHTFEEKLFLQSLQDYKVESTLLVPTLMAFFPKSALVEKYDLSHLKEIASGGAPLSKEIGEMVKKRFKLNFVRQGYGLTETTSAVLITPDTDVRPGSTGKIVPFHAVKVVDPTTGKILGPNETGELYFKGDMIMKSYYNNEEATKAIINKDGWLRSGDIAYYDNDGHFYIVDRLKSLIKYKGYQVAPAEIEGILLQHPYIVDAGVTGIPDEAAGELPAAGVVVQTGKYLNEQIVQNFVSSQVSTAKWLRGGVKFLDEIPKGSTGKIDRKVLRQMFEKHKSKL

Structure (SMILES): CCCCCc1ccc(OCCOCC[n+]2cn(C)c3ccccc32)c(CCCCC)c1
- EC50 [1]: 16.1 µM (inconclusive)
- EC50 [2]: > 150 µM (inactive)
- EC50 [3]: 6.43 µM (active)
- AC50 [4]: 13.1 µM (active)
- AC50 [5]: 9.1 µM (active)
- AC50 [6]: 17.9 µM (active)
- EC50 [7]: 1.31 µM (active)
- EC50 [8]: 13.5 µM (active)

Structure (SMILES): Cc1cc(N2CCN(c3ccncc3)CC2)nc2ccccc12
- IC50 [9]: 15.2 µM (active)
- IC50 [10]: 8.18 µM (active)
- IC50 [11]: 11.4 µM (active)
- IC50 [12]: 19.9 µM (active)

Structure (SMILES): CCOc1ccc(-c2nc(CSCC(=O)NCCN3CCCC3)c(C)o2)cc1
- IC50 [13]: 10.4 µM (active)
- IC50 [14]: > 80 µM (inactive)
- IC50 [15]: 28.4 µM (inactive)

Structure (SMILES): C[C@]12C=CC(=O)C=C1CC[C@@H]1[C@@H]2[C@@H](O)C[C@@]2(C)[C@H]1CC[C@]2(O)C(=O)CO [PREDNISOLONE]
- AC50 [16]: > 52 µM (inactive)
